Test results from patent US9062066B2, “Anti-inflammatory compound having inhibitory activity against multiple tyrosine kinases and pharmaceutical composition containing same” (KOREA INSTITUTE OF SCIENCE AND TECHNOLOGY, priority 2010, dated 2015).

Key:
Assay type in all cases: biochemical
Lyn tyrosine kinase = Lyn tyrosine kinase (Homo sapiens (Human), UniProt P07948); assay: in vitro Lyn tyrosine kinase inhibition; settings: 1 uM compound; read-out: % inhibition against Lyn
Hck tyrosine kinase = Hck tyrosine kinase (Homo sapiens (Human), UniProt P08631); assay: in vitro Hck tyrosine kinase inhibition; settings: 1 uM compound; read-out: % inhibition against Hck
Hck tyrosine kinase, sequence (P08631 whole entry): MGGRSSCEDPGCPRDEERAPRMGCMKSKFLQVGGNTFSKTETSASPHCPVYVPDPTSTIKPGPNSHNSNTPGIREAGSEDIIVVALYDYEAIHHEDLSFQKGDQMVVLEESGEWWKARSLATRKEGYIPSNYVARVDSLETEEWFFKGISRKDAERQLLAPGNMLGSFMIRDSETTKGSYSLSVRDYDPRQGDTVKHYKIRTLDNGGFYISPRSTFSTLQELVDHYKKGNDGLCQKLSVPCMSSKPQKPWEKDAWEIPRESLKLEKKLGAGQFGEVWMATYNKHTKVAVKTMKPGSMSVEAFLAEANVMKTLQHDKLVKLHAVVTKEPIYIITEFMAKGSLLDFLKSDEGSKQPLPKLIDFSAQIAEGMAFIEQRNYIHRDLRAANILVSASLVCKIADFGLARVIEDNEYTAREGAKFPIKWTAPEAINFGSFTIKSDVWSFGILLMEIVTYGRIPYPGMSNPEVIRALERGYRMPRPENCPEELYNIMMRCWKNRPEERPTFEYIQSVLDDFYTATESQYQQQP

c-Src tyrosine kinase = c-Src tyrosine kinase (Homo sapiens (Human), UniProt P12931); assay: in vitro c-Src tyrosine kinase inhibition (32P-ATP, poly(D4Y)n substrate); settings: 1 uM compound; read-out: % inhibition against c-Src
c-Src tyrosine kinase, sequence (P12931 whole entry, looked up, the tested form may be a part): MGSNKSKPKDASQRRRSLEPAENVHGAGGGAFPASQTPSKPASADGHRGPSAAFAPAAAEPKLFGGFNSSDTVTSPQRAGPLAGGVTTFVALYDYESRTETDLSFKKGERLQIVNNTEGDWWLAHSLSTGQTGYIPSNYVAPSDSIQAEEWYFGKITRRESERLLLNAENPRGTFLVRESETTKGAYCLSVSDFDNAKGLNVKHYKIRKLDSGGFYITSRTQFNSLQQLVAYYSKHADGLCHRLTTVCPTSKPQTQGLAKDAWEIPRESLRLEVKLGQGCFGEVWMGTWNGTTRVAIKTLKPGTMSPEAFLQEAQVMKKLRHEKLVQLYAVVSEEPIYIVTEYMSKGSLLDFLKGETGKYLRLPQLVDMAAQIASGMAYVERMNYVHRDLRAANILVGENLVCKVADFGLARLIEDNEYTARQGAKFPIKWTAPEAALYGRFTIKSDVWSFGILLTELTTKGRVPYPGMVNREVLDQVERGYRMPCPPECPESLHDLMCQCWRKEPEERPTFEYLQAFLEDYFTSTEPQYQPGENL

DDR1 tyrosine kinase = DDR1 tyrosine kinase (Homo sapiens (Human), UniProt Q08345); assay: in vitro DDR1 tyrosine kinase inhibition (GST-fused kinase domain); settings: 1 uM compound; read-out: % inhibition against DDR1
DDR1 tyrosine kinase, sequence (Q08345 610-905): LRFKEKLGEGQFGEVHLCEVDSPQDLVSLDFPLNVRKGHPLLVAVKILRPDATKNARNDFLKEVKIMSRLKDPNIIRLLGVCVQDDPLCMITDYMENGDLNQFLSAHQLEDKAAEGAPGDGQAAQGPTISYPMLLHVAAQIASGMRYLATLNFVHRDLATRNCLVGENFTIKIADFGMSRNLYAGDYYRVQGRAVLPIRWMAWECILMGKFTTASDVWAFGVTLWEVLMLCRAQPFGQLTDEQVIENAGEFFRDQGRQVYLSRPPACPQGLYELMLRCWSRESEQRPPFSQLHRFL

Fgr tyrosine kinase = Fgr tyrosine kinase (Homo sapiens (Human), UniProt P09769); assay: in vitro Fgr tyrosine kinase inhibition; settings: 1 uM compound; read-out: % inhibition against Fgr
Fgr tyrosine kinase, sequence (P09769 whole entry, the tested form may be a part): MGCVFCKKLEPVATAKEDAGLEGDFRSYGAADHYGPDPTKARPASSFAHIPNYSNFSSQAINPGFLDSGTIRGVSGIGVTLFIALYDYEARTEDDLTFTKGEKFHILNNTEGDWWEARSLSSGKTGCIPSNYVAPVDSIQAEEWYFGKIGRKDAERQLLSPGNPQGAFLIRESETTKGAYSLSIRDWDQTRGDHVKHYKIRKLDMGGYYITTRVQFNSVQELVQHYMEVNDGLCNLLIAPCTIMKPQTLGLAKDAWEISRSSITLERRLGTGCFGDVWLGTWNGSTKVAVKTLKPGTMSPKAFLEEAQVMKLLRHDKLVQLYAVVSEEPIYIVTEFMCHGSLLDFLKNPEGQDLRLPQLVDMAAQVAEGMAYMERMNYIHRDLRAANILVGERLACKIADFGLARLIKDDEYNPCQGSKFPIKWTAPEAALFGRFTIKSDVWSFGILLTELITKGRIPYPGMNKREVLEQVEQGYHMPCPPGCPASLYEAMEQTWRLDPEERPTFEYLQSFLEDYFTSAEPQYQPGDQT

DDR2 tyrosine kinase = DDR2 tyrosine kinase (Homo sapiens (Human), UniProt Q16832); assay: in vitro DDR2 tyrosine kinase inhibition (GST-fused kinase domain); settings: 1 uM compound; read-out: % inhibition against DDR2
DDR2 tyrosine kinase, sequence (Q16832 563-849): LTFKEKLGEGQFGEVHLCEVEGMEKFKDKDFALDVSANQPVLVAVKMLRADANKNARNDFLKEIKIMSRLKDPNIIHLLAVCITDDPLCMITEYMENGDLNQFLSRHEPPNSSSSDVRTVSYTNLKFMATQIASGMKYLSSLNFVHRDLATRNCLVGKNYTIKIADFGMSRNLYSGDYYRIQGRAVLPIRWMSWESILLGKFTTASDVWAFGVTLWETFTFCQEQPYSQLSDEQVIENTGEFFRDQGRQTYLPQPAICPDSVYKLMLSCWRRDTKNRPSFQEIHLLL

Lyn tyrosine kinase, sequence (P07948 whole entry): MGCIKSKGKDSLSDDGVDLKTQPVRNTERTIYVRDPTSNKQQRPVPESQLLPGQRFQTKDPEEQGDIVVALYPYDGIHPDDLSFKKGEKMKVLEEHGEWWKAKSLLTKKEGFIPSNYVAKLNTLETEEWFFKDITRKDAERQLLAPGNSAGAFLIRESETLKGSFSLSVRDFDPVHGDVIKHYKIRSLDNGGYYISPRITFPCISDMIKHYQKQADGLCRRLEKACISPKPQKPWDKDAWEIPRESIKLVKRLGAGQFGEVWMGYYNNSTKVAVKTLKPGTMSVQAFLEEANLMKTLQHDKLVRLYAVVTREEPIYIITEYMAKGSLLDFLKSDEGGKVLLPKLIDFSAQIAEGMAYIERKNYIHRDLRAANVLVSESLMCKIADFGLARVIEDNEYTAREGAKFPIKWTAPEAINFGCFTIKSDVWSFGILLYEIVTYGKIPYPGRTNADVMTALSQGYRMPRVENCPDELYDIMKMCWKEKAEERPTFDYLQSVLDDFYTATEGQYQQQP

Row | inhibition at 1 µM (Lyn tyrosine kinase) | inhibition at 1 µM (Hck tyrosine kinase) | inhibition at 1 µM (c-Src tyrosine kinase) | inhibition at 1 µM (DDR1 tyrosine kinase) | inhibition at 1 µM (Fgr tyrosine kinase) | inhibition at 1 µM (DDR2 tyrosine kinase) | SMILES
1 | > 30% | > 40% | > 40% | > 70% | > 40% | > 70% | Oc1cccc(Nc2ncnc3cc(-c4ccsc4)sc23)c1 [LCB 03-0031, 3-(6-Thiophene-3-yl-thieno[3,2-d]pyrimidin-4-ylamino)-phenol]
2 | > 30% | > 30% | > 30% | > 80% | > 30% | > 80% | Oc1cccc(Nc2ncnc3cc(-c4ccc(CCN5CCCCC5)cc4)sc23)c1 [LCB 03-0044]
3 | > 30% | > 20% | > 30% | > 80% | > 20% | > 80% | CN1CCN(CCc2ccc(-c3cc4ncnc(Nc5cccc(O)c5)c4s3)cc2)CC1 [LCB 03-0045]
4 | > 30% | > 30% | > 30% | > 80% | > 30% | > 80% | Oc1cccc(Nc2ncnc3cc(-c4ccc(CCN5CCOCC5)cc4)sc23)c1 [LCB 03-0046, 3-(6-(4-(2-morpholinoethyl)phenyl)thieno[3,2-d]pyrimidin-4-ylamino)phenol]
5 | > 40% | > 40% | > 40% | > 80% | > 40% | > 80% | CCN(CC)C(=O)Cc1ccc(-c2cc3ncnc(Nc4cccc(O)c4)c3s2)cc1 [LCB 03-0050, N,N-diethyl-2-(4-(4-(3-hydroxyphenylamino)thieno[3,2-d]pyrimidin-6-yl)phenyl)acetamide]
6 |  |  |  | > 80% |  | > 80% | O=C(O)c1cccc(-c2cc3ncnc(Nc4cccc(O)c4)c3s2)c1 [LCB 03-0051, 3-(4-(3-hydroxyphenylamino)thieno[3,2-d]pyrimidin-6-yl)benzoic acid]
7 | > 60% | > 60% | > 60% | > 80% | > 50% | > 80% | CN1CCN(C(=O)c2ccc(-c3cc4ncnc(Nc5cccc(O)c5)c4s3)cc2)CC1 [LCB 03-0052, (4-(4-(3-hydroxyphenylamino)thieno[3,2-d]pyrimidin-6-yl)phenyl)(4-methylpiperazin-1-yl)methanone]
8 | > 50% | > 50% | > 50% | > 80% | > 50% | > 80% | CN1CCN(C(=O)c2cccc(-c3cc4ncnc(Nc5cccc(O)c5)c4s3)c2)CC1 [LCB 03-0055, (3-(4-(3-hydroxyphenylamino)thieno[3,2-d]pyrimidin-6-yl)phenyl)(4-methylpiperazin-1-yl)methanone]
9 | > 50% | > 50% | > 50% | > 80% | > 50% | > 80% | COC(=O)C1CCCN1Cc1ccc(-c2cc3ncnc(Nc4cccc(O)c4)c3s2)cc1 (stereo not drawn) [LCB 03-0056, methyl 1-(4-(4-(3-hydroxyphenylamino)thieno[3,2-d]pyrimidin-6-yl)benzyl)pyrrolidine-2-carboxylate]
10 |  |  |  | > 80% |  | > 80% | NC(=O)C1CCCN1Cc1ccc(-c2cc3ncnc(Nc4cccc(O)c4)c3s2)cc1 (stereo not drawn) [LCB 03-0068, 1-(4-(4-(3-hydroxyphenylamino)thieno[3,2-d]pyrimidin-6-yl)benzyl)pyrrolidine-2-carboxamide]
11 |  |  |  | > 50% |  | > 50% | O=C(O)C1CCCN1Cc1ccc(-c2cc3ncnc(Nc4cccc(O)c4)c3s2)cc1 (stereo not drawn) [LCB 03-0069, 1-(4-(4-(3-hydroxyphenylamino)thieno[3,2-d]pyrimidin-6-yl)benzyl)pyrrolidine-2-carboxylic acid]
12 | > 30% | > 30% | > 30% | > 80% | > 30% | > 80% | CC(CO)NC(=O)c1ccc(-c2cc3ncnc(Nc4cccc(O)c4)c3s2)cc1 (stereo not drawn) [LCB 03-0074, 4-(4-(3-hydroxyphenylamino)thieno[3,2-d]pyrimidin-6-yl)-N-(1-hydroxypropan-2-yl)benzamide]
13 | > 30% | > 30% | > 30% | > 80% | > 30% | > 80% | CC(NC(=O)c1ccc(-c2cc3ncnc(Nc4cccc(O)c4)c3s2)cc1)C(=O)O (stereo not drawn) [LCB 03-0075, 2-(4-(4-(3-hydroxyphenylamino)thieno[3,2-d]pyrimidin-6-yl)benzamido)propanoic acid]
14 | > 30% | > 30% | > 30% | > 70% | > 30% | > 70% | CN1CCN(c2nc3ncnc(Nc4cccc(O)c4)c3s2)CC1 [LCB 03-0100, 3-(2-(4-methylpiperazin-1-yl)thiazolo[4,5-d]pyrimidin-7-ylamino)phenol]

More lines, now with the values behind:

Row | SMILES | inhibition at 1 µM (Lyn tyrosine kinase) | inhibition at 1 µM (Hck tyrosine kinase) | inhibition at 1 µM (c-Src tyrosine kinase) | inhibition at 1 µM (DDR1 tyrosine kinase) | inhibition at 1 µM (Fgr tyrosine kinase) | inhibition at 1 µM (DDR2 tyrosine kinase)
15 | N#Cc1ccc(-c2cc3ncnc(Nc4cccc(O)c4)c3s2)cc1 [LCB 03-0013, 4-(4-(3-hydroxyphenylamino)thieno[3,2-d]pyrimidin-6-yl)benzonitrile] | > 70% | > 70% | > 70% | > 60% | > 60% | > 60%
16 | COc1cccc(Nc2ncnc3cc(-c4ccc(O)cc4)sc23)c1 [LCB 03-0016, 4-(4-(3-methoxyphenylamino)thieno[3,2-d]pyrimidin-6-yl)phenol] | > 70% | > 70% | > 70% | > 20% | > 70% | > 20%
17 | Oc1cccc(Nc2ncnc3cc(-c4ccc(Cl)cc4)sc23)c1 [LCB 03-0019, 3-(6-(4-chlorophenyl)thieno[3,2-d]pyrimidin-4-ylamino)phenol] | > 60% | > 60% | > 60% | > 70% | > 60% | > 70%
18 | Oc1cccc(Nc2ncnc3cc(-c4ccc(OCCN5CCOCC5)cc4)sc23)c1 [LCB 03-0020, 3-(6-(4-(2-morpholinoethoxy)phenyl)thieno[3,2-d]pyrimidin-4-ylamino)phenol] | > 70% | > 70% | > 70% | > 60% | > 70% | > 60%
19 | COc1cccc(Nc2ncnc3cc(-c4ccc(OCCc5ccccc5)cc4)sc23)c1 [LCB 03-0021, N-(3-methoxyphenyl)-6-(4-phenethoxyphenyl)thieno[3,2-d]pyrimidin-4-amine] | > 60% | > 60% | > 50% | > 30% | > 60% | > 30%
20 | COc1cccc(Nc2ncnc3cc(-c4ccc(OCCc5ccccn5)cc4)sc23)c1 [LCB 03-0022, N-(3-methoxyphenyl)-6-(4-(2-(pyridin-2-yl)ethoxy)phenyl)thieno[3,2-d]pyrimidin-4-amine] | > 60% | > 60% | > 60% | > 10% | > 60% | > 10%
21 | COc1cccc(Nc2ncnc3cc(-c4ccco4)sc23)c1 [LCB 03-0023, (6-Furan-2-yl-thieno[3,2-d]pyrimidin-4-yl)-(3-methoxyphenyl)-amine] | > 40% | > 40% | > 40% | > 60% | > 40% | > 60%
22 | COc1cccc(Nc2ncnc3cc(-c4ccoc4)sc23)c1 [LCB 03-0024, (6-Furan-3-yl-thieno[3,2-d]pyrimidin-4-yl)-(3-methoxyphenyl)-amine] | > 30% | > 30% | > 30% | > 70% | > 30% | > 70%
23 | COc1cccc(Nc2ncnc3cc(-c4ccc(OCCN5CCCC5)cc4)sc23)c1 [LCB 03-0026, N-(3-methoxyphenyl)-6-(4-(2-(pyrrolidin-1-yl)ethoxy)phenyl)thieno[3,2-d]pyrimidin-4-amine] | > 40% | > 60% | > 60% | > 20% | > 60% | > 20%
24 | COc1cccc(Nc2ncnc3cc(-c4cccs4)sc23)c1 [LCB 03-0027, N-(3-methoxyphenyl)-6-(thiophene-2-yl)thieno[3,2-d]pyrimidin-4-amine] | > 40% | > 40% | > 40% | > 70% | > 40% | > 70%
25 | COc1cccc(Nc2ncnc3cc(-c4ccsc4)sc23)c1 [LCB 03-0028, (3-Methoxyphenyl)-(6-thiophene-3-yl-thieno[3,2-d]pyrimidin-4-yl)-amine] | > 30% | > 30% | > 30% | > 50% | > 30% | > 50%
26 | COc1cccc(Nc2ncnc3cc(-c4ccc(OCCN5CCNCC5)cc4)sc23)c1 [LCB 03-0029, N-(3-methoxyphenyl)-6-(4-(2-(piperazin-1-yl)ethoxy)phenyl)thieno[3,2-d]pyrimidin-4-amine] | > 60% | > 60% | > 60% | > 20% | > 60% | > 20%
